Tests used:
in vivo = format: in vivo, Sprague-Dawley rats; settings: male, Sprague-Dawley, rat, in vivo, iv
Procedure: The animal experiments were conducted in line with the Guide for the Care and Use of Laboratory Animals (published by the USA National Institutes of Health, NIH Publication no. 85-23, revised 1996), which were approved by the Animal Care and Use Committee of the College of Animal Science (College of Bee Science), Fujian Agriculture and Forestry University (Approval Number: […]2019004). […] All rats were acclimated to the facilities and environment for 7 days before the experiments. […] The gradient elution was carried out by the mobile phase water with 0.1% formic acid (A) and methanol (B). […] The column temperature and flow rate were at 35 °C and 0.5 ml/min, resepectively. 5 μl sample solution was injected for the HPLC-MS analysis. The electrospray ionization (ESI) source conditions were as follows: block heating temperature was kept at 400 °C; desolvation line temperature was set at 250 °C; dry gas (nitrogen) flow rate was kept at 15 L/min; and auxiliary gas (nitrogen) flow rate was 3 L/min. […] The plasma samples were separated by centrifugation, followed by storing at -20 °C before analysis. […] A DAS 3.0 software (Chinese Pharmacologic Society, Beijing, China) was used to calculate the noncompartmental PK parameters. All the results were presented as mean ± SD, and statistics analysis was done with a single-tailed Student's t test in the work.

[1] = Stability of the compounds in rat plasma (LC-MS validation); format: in vitro ADME
Source text: According to the “Guidelines for non-clinical pharmacokinetics of drugs” issued by Centre for Drug Evaluation, National Medical Products Administration, China ([Guidelines for non-clinical pharmacokinetics of drugs, 2014]), the LC-MS method was validated by linearity, limits of detection (LOD), limits of quantification (LOQ), precision, accuracy, extraction recovery, matrix effect and stability of the 6 compounds in rat plasma. In brief, blank rat plasma was obtained from the other six rats. The standard mixture solution containing the 6 compounds (with the concentration of 1 mg/ml for each) was diluted with […] to prepare a series of working solution containing the 6 compounds (concentration level: 20, 50, 100, 250, 500 ng/ml and 1, 2.5, 5, 10, 25, 50, 100, 125 150, 200 μg/ml) and IS (2.5μg/ml). For calibration curve, 10 μl of the series of working solution containing the IS (2.5μg/ml) was added into 100 μl of blank plasma. Finally, 15 data points (2, 5, 10, 25, 50, 100, 250, 500 ng/ml and 1, 2.5, 5, 10, 12.5 15, 20 μg/ml) were used in the calibration curve linearity. Calibration curves were plotted by weighted linear regression of the peak area ratio of analyte to the IS against the related nominal concentration of the analyte. LOD and LOQ were defined as the detectable concentration at which the ratio of signal to noise was about 3 and 10, respectively ([Huang et al., 2019]). […] The extraction recovery and matrix effect were also assessed at the above-mentioned three concentration levels for the 6 ingredients in the spiked plasma samples ([Huang et al., 2019]). Stability was examined under the condition of setting un-treated plasma samples at ambient temperature for 6 h, and extracted plasma samples in auto-sampler for 10 h, as well as setting plasma samples for three freeze-thaw cycles and at −80°C for 15 days ([Guidelines for non-clinical pharmacokinetics of drugs, 2014]).

AKT = tested on: AKT; parameters: method as in Yang et al., 2018; settings: down-regulates transcriptional activity of FoxO1; ref Yang et al., 2018; cited from earlier work

For `C=C[C@@H]1C2=CCOC(=O)C2=CO[C@H]1O[C@@H]1O[C@H](CO)[C@@H](O)[C@H](O)[C@H]1O` [GPS, gentiopicroside], the “AUC0-∞” value (in vivo) was 118.37 ± 6.75 ng·h/mL, the AUC(0-t) (in vivo) was 108.95 ± 5.92 ng·h/mL and the Cl (in vivo) was 3.83 ± 0.23 L/h. For the same molecule, the MRT0-t (in vivo) was 15.6 ± 0.6 min, the “MRT0-∞” value (in vivo) was 21 ± 2.4 min and the Vd (in vivo) was 1.45 ± 0.16 L. The “t 1/2” value (in vivo) was 15.6 ± 2.4 min, the AUC(0-t) (in vivo; AUC0-t) was 63.6 ± 2.53 ng·h/mL and the AUC(0-inf) (in vivo; AUC0-∞) was 68.2 ± 1.88 ng·h/mL. The clearance (in vivo; Cl) was 55.3 mL/min, the MRT last (in vivo; MRT0-t) was 21.6 ± 0.6 min and the MRT inf (in vivo; MRT0-∞) was 25.2 ± 3 min. The Vd (in vivo; Vd) was 1.08 ± 0.26 L, the half-life (in vivo; t 1/2) was 13.8 ± 3.6 min and the “Stability, RE” value ([1]; extracted plasma samples, 10h in auto-sampler vials, high spiked level (HQC, 8000-16000 ng/mL)) was -9.29%. For the same molecule, the “Stability, RE” value ([1]; extracted plasma samples, 10h in auto-sampler vials, low spiked level (LQC, 5-30 ng/mL)) was 10.09%, the “Stability, RE” value ([1]; extracted plasma samples, 10h in auto-sampler vials, middle spiked level (MQC, 400-1600 ng/mL)) was 2.52% and the “Stability, RE” value ([1]; rat plasma, 6h at room temperature, high spiked level (HQC, 8000-16000 ng/mL)) was -13.56%. The “Stability, RE” value ([1]; rat plasma, 6h at room temperature, low spiked level (LQC, 5-30 ng/mL)) was -10.12%, the “Stability, RE” value ([1]; rat plasma, 6h at room temperature, middle spiked level (MQC, 400-1600 ng/mL)) was -6.72% and the “Stability, RE” value ([1]; rat plasma, freeze-thaw stability (three cycles), high spiked level (HQC, 8000-16000 ng/mL)) was -2.10%. For the same molecule, the “Stability, RE” value ([1]; rat plasma, freeze-thaw stability (three cycles), low spiked level (LQC, 5-30 ng/mL)) was 14.78%, the “Stability, RE” value ([1]; rat plasma, freeze-thaw stability (three cycles), middle spiked level (MQC, 400-1600 ng/mL)) was 1.22% and the “Stability, RE” value ([1]; rat plasma, long-term stability (-80℃,15 days), high spiked level (HQC, 8000-16000 ng/mL)) was 9.68%. The “Stability, RE” value ([1]; rat plasma, long-term stability (-80℃,15 days), low spiked level (LQC, 5-30 ng/mL)) was 12.72%, the “Stability, RE” value ([1]; rat plasma, long-term stability (-80℃,15 days), middle spiked level (MQC, 400-1600 ng/mL)) was 4.29% and the “effect on phosphorylation of AKT” value (AKT) was “activate the phosphorylation of AKT”.

Reference: publication PMC7457137, “An Integrated Pharmacokinetic Study of an Acanthopanax senticosus Extract Preparation by Combination of Virtual Screening, Systems Pharmacology, and Multi-Component Pharmacokinetics in Rats” (Frontiers in Pharmacology, 2020)
